Reference: ChEMBL document CHEMBL1133360, “Design, synthesis, and biological activity of a cyclic peptide: an inhibitor of HIV-1 tat-TAR interactions in human cells” (Bioorg Med Chem Lett, 2000)
Where a SMILES comes first, the peptide text is derived from it. [ ]: non-standard residue; d: D form.

Experiments:
[1] = Inhibitory activity of compound was tested against transcriptional activation by Tat protein in human cells; format: functional, cell-based
[2] = species on record: Homo sapiens; experiment: Percent of Tat-activation inhibited at 500 uM of the compound; format: functional

Row | IC50 [1] [nM] | SMILES | inhibition [2] [%]
1 | ~50 | NCCCC[C@H](N)C(=O)N[C@H](CCCCN)C(=O)N[C@@H](CC(N)=O)C(=O)O (H-Lys-[dK]-Asn-OH) | –
2 | ~40 | NCCCC[C@@H]1NC(=O)[C@@H](N)CCCCNC(=O)CC[C@@H](C(=O)O)NC(=O)[C@H](CC(N)=O)NC(=O)[C@@H](CCCCN)NC1=O | > 90
